Data published in PMC11867202, “Phosphonoalamides Reveal the Biosynthetic Origin of Phosphonoalanine Natural Products and a Convergent Pathway for Their Diversification” (Angewandte Chemie (International ed. in English), 2024).
Where two headings read alike, the source gives them in different places. One block for each compound: values may come before it.

How the values were obtained:
PnaA [1] = settings: read-out: Km (apparent); co-substrate oxaloacetate; PLP
PnaD = tested on: T1, PnaD; assay: coupled spectrophotometric assay, NADH oxidation; PnaD with PnaA; assay type: biochemical, Streptomyces sp. NRRL S-515; settings: two-enzyme system, 5:1 PnaD to PnaA; co-substrate L-Asp; read-out: Km (apparent)
T1 construct: recombinant, purified from E. coli; assayed coupled to PnaA
Text: coupled spectrophotometric assay, NADH oxidation; PnaD with PnaA on PnaD | apparent steady state parameters for the conversion of PEP to L-PnAla in reactions with PnaD

PnaA [2] = tested on: T2, PnaA; assay: coupled spectrophotometric assay, NADH oxidation via PnPy reductase VlpB; assay type: biochemical, Streptomyces sp. NRRL S-515; settings: reverse reaction; co-substrate oxaloacetate; PLP; varied substrate not explicitly named in main text; read-out: Km (apparent)
T2 construct: recombinant, purified from E. coli; PLP-dependent
Text: coupled spectrophotometric assay, NADH oxidation via PnPy reductase VlpB on PnaA | the reverse reaction (transamination of PnAla and OAA to PnPy and Asp)

PnaA [3] = tested on: T2, PnaA; assay: coupled spectrophotometric assay, NADH oxidation via malate dehydrogenase; assay type: biochemical, Streptomyces sp. NRRL S-515; settings: co-substrate L-Asp; PLP; read-out: Km (apparent)

Km (PnaA [1]): 7500 ± 700 µM
Compound: N[C@@H](CCC(=O)O)C(=O)O [Glu]

Km (PnaD): 546 ± 60 µM
Compound: C=C(OP(=O)(O)O)C(=O)O [PEP]

Compound: N[C@@H](CP(=O)(O)O)C(=O)O [PnAla]
Km (PnaA [2]): 327 ± 40 µM

Compound: O=C(O)C(=O)CP(=O)(O)O [PnPy]
Km (PnaA [3]): 4.8 ± 0.4 µM

Km (PnaA [3]): 899 ± 97 µM
Compound: O=C(O)CCC(=O)C(=O)O [αKG]
